Assay results as given in PMC9506049, “Oxidation of p-[^125I]Iodobenzoic Acid and p-[^211At]Astatobenzoic Acid Derivatives and Evaluation In Vivo” (International Journal of Molecular Sciences, 2022).
Blank lines part the entries; values can stand above or below the compound they belong to.

Key:
[1] = Stability to isolation from radio-HPLC effluent, evaporation and dissolution in PBS (radio-HPLC reinjection); assay type: physicochemical; conditions: evaporation of solvents, dissolution in PBS
Method: Similarly, radiohalogenation of para-tri-n-butylstannylbenzamidyl-dPEG4-carboxylic acid methyl ester 9 (Figure 3) using ChT as oxidant provided quantitative yields of [^125I]10 and [^211At]12 by radio-HPLC analyses (Figure 4A,B). The radiohalogenation reaction products were used without purification in the oxidation reactions to make the corresponding iodoxyaryl or astatoxyaryl compounds. Oxidation of [^125I]5 (Figure 2) provided [^125I]6 in 71% RCY. Oxidation of [^125I]10 (Figure 3) at 70 °C for 20 min provided a complex mixture of products, but isolation of the major peak (~6–8 min) provided [^125I]11 in 60% RCY (Figure 4C,E). […]
Two biodistribution studies were conducted. One biodistribution study evaluated the tissue distribution in athymic mice of isolated products from the reactions to produce [^125I]11 and [^211At]13. […]
HPLC analyses of non-radioactive compounds were performed using a system composed of a Hewlett-Packard quaternary 1050 gradient pump, a variable wavelength UW detector (254 nm) and an evaporative light scattering detector (ELSD 2000, Alltech, Deerfield, IL, USA). Radio-HPLC analysis of product mixtures from radiohalogenation reactions were analyzed using a system composed of two Beckman model 110 B pumps, a Beckman 420 controller, a Beckman model 153 UV detector (254 nm), and a Beckman model 170 radiation detector. […]

[2] = Biodistribution of coinjected [125I]11 and [211At]13 in athymic mice; assay type: in vivo; conditions: tail vein coinjection, 3 µCi each, n = 5, mean ± SD; for Concentration of radioactivity in neck: neck (thyroid)
[3] = Solubility observations; assay type: physicochemical

SMILES: COC(=O)CCOCCOCCOCCOCCNC(=O)c1ccc([211At](=O)=O)cc1 [[211At]13, p-[^211At]astatoxylbenzoyl-dPEG-methyl ester]
Stability under the conditions of isolation by radio-HPLC [1]: too unstable

Concentration of radioactivity in blood ([2]; 1 h p.i.): 0.22 ± 0.14 %ID/g
Concentration of radioactivity in intestine ([2]; 1 h p.i.): 9.59 ± 8.73 %ID/g
Concentration of radioactivity in kidney ([2]; 1 h p.i.): 0.84 ± 0.23 %ID/g
Concentration of radioactivity in liver ([2]; 1 h p.i.): 1.73 ± 0.96 %ID/g
Concentration of radioactivity in lung ([2]; 1 h p.i.): 0.32 ± 0.10 %ID/g
Concentration of radioactivity in muscle ([2]; 1 h p.i.): 0.12 ± 0.05 %ID/g
Concentration of radioactivity in spleen ([2]; 1 h p.i.): 0.35 ± 0.28 %ID/g
Concentration of radioactivity in stomach ([2]; 1 h p.i.): 3.53 ± 1.09 %ID/g
Concentration of radioactivity in blood ([2]; 4 h p.i.): 0.23 ± 0.18 %ID/g
Concentration of radioactivity in intestine ([2]; 4 h p.i.): 3.39 ± 1.15 %ID/g
Concentration of radioactivity in kidney ([2]; 4 h p.i.): 0.40 ± 0.15 %ID/g
Concentration of radioactivity in liver ([2]; 4 h p.i.): 0.64 ± 0.47 %ID/g
Concentration of radioactivity in lung ([2]; 4 h p.i.): 0.14 ± 0.07 %ID/g
Concentration of radioactivity in muscle ([2]; 4 h p.i.): 0.03 ± 0.01 %ID/g
Concentration of radioactivity in spleen ([2]; 4 h p.i.): 0.08 ± 0.04 %ID/g
Concentration of radioactivity in stomach ([2]; 4 h p.i.): 0.65 ± 0.16 %ID/g
Concentration of radioactivity in blood ([2]; 24 h p.i.): 0.01 ± 0.00 %ID/g
Concentration of radioactivity in intestine ([2]; 24 h p.i.): 0.02 ± 0.01 %ID/g
Concentration of radioactivity in kidney ([2]; 24 h p.i.): 0.03 ± 0.01 %ID/g
Concentration of radioactivity in liver ([2]; 24 h p.i.): 0.01 ± 0.00 %ID/g
Concentration of radioactivity in lung ([2]; 24 h p.i.): 0.54 ± 0.85 %ID/g
Concentration of radioactivity in spleen ([2]; 24 h p.i.): 0.01 ± 0.00 %ID/g
Concentration of radioactivity in stomach ([2]; 24 h p.i.): 0.02 ± 0.01 %ID/g
Concentration of radioactivity in neck ([2]; 1 h p.i.): 0.49 ± 0.09 %ID/g
Concentration of radioactivity in neck ([2]; 4 h p.i.): 0.35 ± 0.14 %ID/g
Concentration of radioactivity in neck ([2]; 24 h p.i.): 0.02 ± 0.01 %ID/g
Stability under the conditions of isolation by radio-HPLC [1]: did not change during that process
SMILES: COC(=O)CCOCCOCCOCCOCCNC(=O)c1ccc([125I](=O)=O)cc1 [[125I]11]

Solubility in DMSO ([3]; DMSO at room temperature): only partially soluble
Solubility ([3]; all solvents tried): very insoluble in all solvents tried
melting point: 243 to 245 °C
SMILES: COC(=O)c1ccc(I(=O)=O)cc1 [Compound 6, Para-Iodoxybenzoic Acid Methyl Ester]
